Source: ChEMBL document CHEMBL1201862, “PubChem BioAssay data set” (2004)
Active and inactive are the calls of the source.

Assays:
[1] = biological target: T1, G-protein coupled receptor 55 (Homo sapiens, UniProt Q9Y2T6); experiment: GPR55 antagonists blocking LPI-driven arrestin recruitment, primary screen, imaging, U2OS, beta-arrestin-GFP, LPI agonist (AID 2013); format: functional;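 further: antagonist potency measured as reduced agonist-driven arrestin aggregation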
Cannabinoid receptor 1 [2] = biological target: T2, Cannabinoid receptor 1 (Homo sapiens, UniProt P21554); experiment: SAR analysis of antagonists of the Cannabinoid Receptor 1 using an Image-Based Assay - Set 2. [Related pubchem assays (depositor defined):AID2013, AID2026]; format: functional
T2 sequence (P21554 whole entry): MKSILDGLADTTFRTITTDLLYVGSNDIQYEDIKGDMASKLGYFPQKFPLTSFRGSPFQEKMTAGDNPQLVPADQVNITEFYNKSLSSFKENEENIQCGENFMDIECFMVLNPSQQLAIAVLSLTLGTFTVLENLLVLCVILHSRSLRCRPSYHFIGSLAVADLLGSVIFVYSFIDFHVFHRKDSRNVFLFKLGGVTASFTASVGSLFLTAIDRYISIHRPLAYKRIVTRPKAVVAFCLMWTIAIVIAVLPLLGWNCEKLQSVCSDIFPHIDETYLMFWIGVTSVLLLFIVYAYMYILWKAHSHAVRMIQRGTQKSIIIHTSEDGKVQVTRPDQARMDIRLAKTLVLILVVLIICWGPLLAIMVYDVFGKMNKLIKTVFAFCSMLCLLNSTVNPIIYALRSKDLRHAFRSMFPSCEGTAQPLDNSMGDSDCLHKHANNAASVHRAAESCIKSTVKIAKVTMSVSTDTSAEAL

[3] = biological target: T3, G-protein coupled receptor 35 (Homo sapiens, UniProt Q9HC97); experiment: SAR analysis of Agonists of the GPR35 Receptor using an Image-Based Assay - Set 2. [Related pubchem assays (depositor defined):AID2013, AID2026]; format: functional
T3 sequence (Q9HC97 whole entry): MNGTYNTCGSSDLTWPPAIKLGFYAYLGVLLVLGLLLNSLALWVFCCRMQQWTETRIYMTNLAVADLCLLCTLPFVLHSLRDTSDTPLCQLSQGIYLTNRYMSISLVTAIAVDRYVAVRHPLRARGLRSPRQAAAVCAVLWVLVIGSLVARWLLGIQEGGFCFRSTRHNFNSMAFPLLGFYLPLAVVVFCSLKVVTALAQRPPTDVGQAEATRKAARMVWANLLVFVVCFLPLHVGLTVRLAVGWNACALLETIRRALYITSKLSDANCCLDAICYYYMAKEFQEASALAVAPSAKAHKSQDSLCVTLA

Cannabinoid receptor 2 [4] = biological target: T4, Cannabinoid receptor 2 (Homo sapiens, UniProt P34972); experiment: SAR analysis of antagonists of the Cannabinoid Receptor 2 using an Image-Based Assay. [Related pubchem assays (depositor defined):AID2013, AID2026]; format: functional
T4 sequence (P34972 whole entry): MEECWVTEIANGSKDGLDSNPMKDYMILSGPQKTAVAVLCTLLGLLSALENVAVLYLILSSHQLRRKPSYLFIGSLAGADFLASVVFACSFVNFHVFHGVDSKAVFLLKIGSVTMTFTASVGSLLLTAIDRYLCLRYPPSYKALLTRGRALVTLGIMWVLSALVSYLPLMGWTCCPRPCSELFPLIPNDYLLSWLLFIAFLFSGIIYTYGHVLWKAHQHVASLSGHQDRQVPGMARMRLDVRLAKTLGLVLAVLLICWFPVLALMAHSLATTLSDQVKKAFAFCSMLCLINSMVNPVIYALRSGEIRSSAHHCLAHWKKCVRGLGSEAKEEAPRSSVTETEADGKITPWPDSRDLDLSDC

Cannabinoid receptor 1 [5] = biological target: T2, Cannabinoid receptor 1; experiment: SAR analysis of agonists of the Cannabinoid Receptor 1 using an Image-Based Assay - Set 2. [Related pubchem assays (depositor defined):AID2013, AID2026]; format: functional
[6] = biological target: T3, G-protein coupled receptor 35; experiment: SAR analysis of Antagonists of the GPR35 Receptor using an Image-Based Assay - Set 3. [Related pubchem assays (depositor defined):AID2013, AID2026]; format: functional
[7] = biological target: T1, G-protein coupled receptor 55; experiment: GPR55 antagonist potency of analogs, SAR follow-up, imaging, U2OS, beta-arrestin-GFP, LPI agonist, set 2 (AID 2820); format: functional
Cannabinoid receptor 2 [8] = biological target: T4, Cannabinoid receptor 2; experiment: SAR analysis of agonists of the Cannabinoid Receptor 2 using an Image-Based Assay. [Related pubchem assays (depositor defined):AID2013, AID2026]; format: functional
[9] = biological target: T5, Tyrosine-protein phosphatase non-receptor type 7 (Homo sapiens, UniProt P35236); format: functional
T5 sequence (P35236 whole entry): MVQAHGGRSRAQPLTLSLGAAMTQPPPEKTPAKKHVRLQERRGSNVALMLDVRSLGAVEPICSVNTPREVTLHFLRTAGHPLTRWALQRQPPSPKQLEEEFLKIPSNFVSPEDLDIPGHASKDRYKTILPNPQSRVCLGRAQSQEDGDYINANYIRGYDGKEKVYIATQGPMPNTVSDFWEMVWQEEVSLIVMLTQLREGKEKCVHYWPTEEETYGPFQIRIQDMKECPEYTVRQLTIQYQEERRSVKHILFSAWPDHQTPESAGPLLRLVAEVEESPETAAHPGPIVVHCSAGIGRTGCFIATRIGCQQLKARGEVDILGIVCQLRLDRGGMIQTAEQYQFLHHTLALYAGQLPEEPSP

[10] = biological target: T6, Tyrosine-protein phosphatase non-receptor type 22 (Homo sapiens, UniProt Q9Y2R2); format: functional
T6 sequence (Q9Y2R2 whole entry): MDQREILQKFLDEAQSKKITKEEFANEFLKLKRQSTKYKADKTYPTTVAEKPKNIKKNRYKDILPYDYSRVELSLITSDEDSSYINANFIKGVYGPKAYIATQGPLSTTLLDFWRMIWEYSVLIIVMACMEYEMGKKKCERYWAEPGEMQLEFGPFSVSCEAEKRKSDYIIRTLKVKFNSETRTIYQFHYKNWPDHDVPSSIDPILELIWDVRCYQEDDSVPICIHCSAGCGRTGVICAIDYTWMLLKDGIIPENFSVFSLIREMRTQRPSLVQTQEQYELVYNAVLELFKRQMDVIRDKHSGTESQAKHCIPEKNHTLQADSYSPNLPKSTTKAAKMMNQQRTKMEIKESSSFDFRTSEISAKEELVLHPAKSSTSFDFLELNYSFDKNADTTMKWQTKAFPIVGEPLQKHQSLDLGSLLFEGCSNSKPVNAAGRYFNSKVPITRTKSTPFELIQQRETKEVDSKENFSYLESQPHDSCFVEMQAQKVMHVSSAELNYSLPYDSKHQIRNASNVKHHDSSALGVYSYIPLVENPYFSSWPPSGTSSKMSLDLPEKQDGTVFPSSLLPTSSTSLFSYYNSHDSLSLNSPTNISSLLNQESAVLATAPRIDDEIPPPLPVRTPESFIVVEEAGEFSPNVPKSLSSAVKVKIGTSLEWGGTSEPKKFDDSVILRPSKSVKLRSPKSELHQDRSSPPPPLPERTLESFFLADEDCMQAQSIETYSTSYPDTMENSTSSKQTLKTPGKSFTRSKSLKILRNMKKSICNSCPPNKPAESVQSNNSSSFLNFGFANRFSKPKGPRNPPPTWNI

[11] = biological target: T6, Tyrosine-protein phosphatase non-receptor type 22; format: functional; remark: listed apart in the source
[12] = biological target: Eukaryotic translation initiation factor 4H (Homo sapiens, UniProt Q15056); experiment: human eIF4H binding inhibitors, primary screen, translation initiation inhibitor project, biochemical, uHTS, fluorescence polarization (AID 2012)
SUMO-activating enzyme [13] = biological target: T7, SUMO-activating enzyme (Homo sapiens, UniProt Q9UBT2); experiment: SUMOylation inhibitor hit validation, confirmation, SUMOylation inhibitor project, biochemical, AlphaScreen (AID 2018); format: functional
T7 sequence (Q9UBE0 whole entry): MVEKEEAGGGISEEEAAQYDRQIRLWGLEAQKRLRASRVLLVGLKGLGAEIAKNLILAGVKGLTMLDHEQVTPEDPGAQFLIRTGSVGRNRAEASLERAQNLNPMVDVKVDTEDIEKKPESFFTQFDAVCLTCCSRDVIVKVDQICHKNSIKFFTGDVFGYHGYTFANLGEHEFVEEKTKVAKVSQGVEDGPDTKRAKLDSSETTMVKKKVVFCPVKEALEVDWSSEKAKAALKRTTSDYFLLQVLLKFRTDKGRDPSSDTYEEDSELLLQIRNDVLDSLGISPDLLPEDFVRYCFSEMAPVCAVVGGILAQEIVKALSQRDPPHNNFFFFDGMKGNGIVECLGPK
T7 sequence (Q9UBT2 whole entry): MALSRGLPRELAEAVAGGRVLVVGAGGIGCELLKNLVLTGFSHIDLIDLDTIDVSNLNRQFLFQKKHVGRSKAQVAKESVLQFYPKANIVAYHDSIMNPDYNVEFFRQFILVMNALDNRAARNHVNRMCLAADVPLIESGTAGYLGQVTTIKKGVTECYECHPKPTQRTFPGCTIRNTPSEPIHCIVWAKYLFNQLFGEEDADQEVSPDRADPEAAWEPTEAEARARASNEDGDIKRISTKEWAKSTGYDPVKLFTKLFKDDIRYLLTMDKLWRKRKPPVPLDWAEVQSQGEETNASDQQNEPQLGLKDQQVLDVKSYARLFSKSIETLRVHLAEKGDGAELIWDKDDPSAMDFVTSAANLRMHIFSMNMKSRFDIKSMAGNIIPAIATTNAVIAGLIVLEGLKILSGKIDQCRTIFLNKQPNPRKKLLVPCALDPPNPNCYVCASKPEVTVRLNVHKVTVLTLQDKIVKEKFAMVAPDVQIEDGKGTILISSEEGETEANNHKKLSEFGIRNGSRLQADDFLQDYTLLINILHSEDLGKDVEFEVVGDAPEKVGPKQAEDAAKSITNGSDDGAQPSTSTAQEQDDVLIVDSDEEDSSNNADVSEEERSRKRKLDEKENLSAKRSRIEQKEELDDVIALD

SUMO-activating enzyme [14] = biological target: T7, SUMO-activating enzyme; experiment: inhibitors of in vitro SUMOylation cascade, primary screen, biochemical, HTRF, uHTS (AID 2006); format: protein-complex assay
[15] = biological target: Polyadenylate-binding protein 1 (Homo sapiens, UniProt P11940); experiment: PABP poly(A) RNA binding inhibitors, primary screen, biochemical, fluorescence polarization, uHTS (AID 2014)
Polyadenylate-binding protein 1, sequence (P11940 whole entry): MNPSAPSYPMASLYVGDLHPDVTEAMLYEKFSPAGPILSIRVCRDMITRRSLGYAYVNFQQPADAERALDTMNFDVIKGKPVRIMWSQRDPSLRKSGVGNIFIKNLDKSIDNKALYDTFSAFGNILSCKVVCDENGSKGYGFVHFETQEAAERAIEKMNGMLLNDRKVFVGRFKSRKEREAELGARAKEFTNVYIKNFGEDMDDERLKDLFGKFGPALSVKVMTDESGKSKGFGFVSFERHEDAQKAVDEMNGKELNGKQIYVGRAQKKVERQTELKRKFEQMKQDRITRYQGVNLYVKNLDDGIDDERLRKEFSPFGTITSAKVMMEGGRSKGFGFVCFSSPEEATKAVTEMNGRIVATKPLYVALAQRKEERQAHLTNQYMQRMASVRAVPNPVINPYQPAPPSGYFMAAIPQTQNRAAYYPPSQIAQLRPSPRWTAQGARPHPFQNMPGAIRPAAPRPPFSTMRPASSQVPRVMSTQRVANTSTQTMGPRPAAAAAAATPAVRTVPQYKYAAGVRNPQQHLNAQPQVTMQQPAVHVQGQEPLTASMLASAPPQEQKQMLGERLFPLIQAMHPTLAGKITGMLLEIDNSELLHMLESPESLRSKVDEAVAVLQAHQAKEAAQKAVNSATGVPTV

[16] = biological target: Intestinal-type alkaline phosphatase (Homo sapiens, UniProt P09923); experiment: activation of human intestinal alkaline phosphatase – biochemical, dose response (AID 488873); format: functional
Intestinal-type alkaline phosphatase (Homo sapiens, UniProt P09923), sequence (P09923 whole entry): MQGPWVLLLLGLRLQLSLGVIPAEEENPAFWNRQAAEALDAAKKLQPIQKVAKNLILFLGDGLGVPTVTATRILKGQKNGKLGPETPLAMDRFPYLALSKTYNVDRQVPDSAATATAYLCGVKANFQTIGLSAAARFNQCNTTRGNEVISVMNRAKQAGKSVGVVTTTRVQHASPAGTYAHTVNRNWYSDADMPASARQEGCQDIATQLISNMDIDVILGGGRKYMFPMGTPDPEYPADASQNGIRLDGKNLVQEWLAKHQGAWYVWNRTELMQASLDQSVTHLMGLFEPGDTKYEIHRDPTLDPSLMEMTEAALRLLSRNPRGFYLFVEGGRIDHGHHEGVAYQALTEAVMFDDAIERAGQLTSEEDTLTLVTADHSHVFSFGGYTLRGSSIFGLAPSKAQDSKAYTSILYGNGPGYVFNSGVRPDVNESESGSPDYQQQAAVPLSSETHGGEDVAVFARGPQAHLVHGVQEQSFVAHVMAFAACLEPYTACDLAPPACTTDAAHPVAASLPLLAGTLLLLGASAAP

[17] = biological target: Intestinal-type alkaline phosphatase (Mus musculus, UniProt P24822); experiment: mouse intestinal alkaline phosphatase activators, dose response, biochemical, luminescence, uHTS hits (AID 488783); format: functional
Intestinal-type alkaline phosphatase (Mus musculus, UniProt P24822), sequence (P24822 whole entry): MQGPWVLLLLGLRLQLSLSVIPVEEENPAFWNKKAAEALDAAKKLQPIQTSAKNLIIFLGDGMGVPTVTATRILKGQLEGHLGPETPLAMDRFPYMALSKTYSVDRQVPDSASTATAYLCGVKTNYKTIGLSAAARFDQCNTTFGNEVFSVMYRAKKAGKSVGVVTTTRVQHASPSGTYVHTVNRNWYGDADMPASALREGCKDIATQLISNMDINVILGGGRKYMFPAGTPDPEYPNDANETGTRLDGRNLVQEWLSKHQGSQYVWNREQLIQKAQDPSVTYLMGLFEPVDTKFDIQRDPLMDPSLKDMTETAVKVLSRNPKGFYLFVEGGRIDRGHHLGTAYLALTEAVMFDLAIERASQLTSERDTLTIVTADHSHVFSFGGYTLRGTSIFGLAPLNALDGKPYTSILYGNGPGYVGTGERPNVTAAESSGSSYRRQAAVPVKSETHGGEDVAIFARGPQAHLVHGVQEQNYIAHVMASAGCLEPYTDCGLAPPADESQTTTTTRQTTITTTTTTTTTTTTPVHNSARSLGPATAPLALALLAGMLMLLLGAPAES

[18] = biological target: T8, Alkaline phosphatase, tissue-nonspecific isozyme (Homo sapiens, UniProt P05186); experiment: TNAP enzyme activators, dose response, selectivity assay for mouse IAP activator project, biochemical, TNAP isozyme, mouse IAP uHTS hits (AID 488880); format: functional
T8 sequence (P05186 whole entry): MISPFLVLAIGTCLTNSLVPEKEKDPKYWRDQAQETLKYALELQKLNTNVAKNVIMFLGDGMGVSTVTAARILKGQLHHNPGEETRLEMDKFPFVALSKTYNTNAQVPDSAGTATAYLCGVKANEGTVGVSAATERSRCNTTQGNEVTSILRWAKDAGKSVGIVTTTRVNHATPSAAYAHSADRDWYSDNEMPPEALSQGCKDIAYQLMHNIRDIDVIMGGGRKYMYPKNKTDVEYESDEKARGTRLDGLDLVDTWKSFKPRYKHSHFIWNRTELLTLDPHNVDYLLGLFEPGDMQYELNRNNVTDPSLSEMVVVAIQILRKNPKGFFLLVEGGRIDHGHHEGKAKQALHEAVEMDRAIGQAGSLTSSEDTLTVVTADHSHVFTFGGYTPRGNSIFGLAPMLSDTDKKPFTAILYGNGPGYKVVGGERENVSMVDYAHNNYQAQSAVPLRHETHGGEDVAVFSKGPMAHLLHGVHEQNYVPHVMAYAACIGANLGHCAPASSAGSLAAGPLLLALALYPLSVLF

[19] = biological target: T9, Runt-related transcription factor 1/Core-binding factor subunit beta (Homo sapiens, UniProt Q01196+Q13951); experiment: inhibitors of RUNX1 Runt–CBFb-SMMHC binding, primary screen, biochemical, FRET, Cerulean-Runt, Venus-CBFb-SMMHC, uHTS (AID 1434); format: protein assay;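 further: partner is the CBFb-SMMHC leukemia fusion protein rather than wild-type CBFb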
T9 sequence (Q01196 whole entry, the tested form may be a part): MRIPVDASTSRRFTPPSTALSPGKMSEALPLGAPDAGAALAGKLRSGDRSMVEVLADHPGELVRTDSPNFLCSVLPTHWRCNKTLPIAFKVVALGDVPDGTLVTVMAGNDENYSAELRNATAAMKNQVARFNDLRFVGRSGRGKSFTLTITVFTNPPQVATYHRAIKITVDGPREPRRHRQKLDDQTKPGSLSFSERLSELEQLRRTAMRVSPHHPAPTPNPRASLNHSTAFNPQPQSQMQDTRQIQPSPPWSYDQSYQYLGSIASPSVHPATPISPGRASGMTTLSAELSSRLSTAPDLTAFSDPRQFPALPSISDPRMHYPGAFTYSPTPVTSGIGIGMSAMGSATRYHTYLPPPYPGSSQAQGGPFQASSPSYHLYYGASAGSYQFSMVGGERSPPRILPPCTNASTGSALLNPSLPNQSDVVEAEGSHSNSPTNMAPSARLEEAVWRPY
T9 sequence (Q13951 whole entry, the tested form may be a part): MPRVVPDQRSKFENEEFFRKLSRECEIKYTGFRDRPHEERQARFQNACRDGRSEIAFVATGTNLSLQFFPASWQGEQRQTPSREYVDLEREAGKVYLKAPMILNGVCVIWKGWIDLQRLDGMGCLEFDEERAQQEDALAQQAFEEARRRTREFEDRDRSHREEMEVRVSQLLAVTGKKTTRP

[20] = biological target: T10, Voltage-gated N-type calcium channel alpha-1B subunit/Amyloid beta A4 precursor protein-binding family A member 1 (Homo sapiens, UniProt Q00975+Q02410); format: protein assay
[21] = biological target: T9, Runt-related transcription factor 1/Core-binding factor subunit beta; experiment: inhibitors of RUNX1 Runt–CBFb-SMMHC binding, biochemical, TR-FRET (AID 1438); format: protein assay
[22] = biological target: T10, Voltage-gated N-type calcium channel alpha-1B subunit/Amyloid beta A4 precursor protein-binding family A member 1; format: protein assay; remark: listed apart in the source
[23] = biological target: T11, Mannose-6-phosphate isomerase (Homo sapiens, UniProt P34949); experiment: human PMI inhibitors, high substrate, primary screen, biochemical, fluorescence intensity, high mannose 6-phosphate (AID 1220)
T11 sequence (P34949 whole entry): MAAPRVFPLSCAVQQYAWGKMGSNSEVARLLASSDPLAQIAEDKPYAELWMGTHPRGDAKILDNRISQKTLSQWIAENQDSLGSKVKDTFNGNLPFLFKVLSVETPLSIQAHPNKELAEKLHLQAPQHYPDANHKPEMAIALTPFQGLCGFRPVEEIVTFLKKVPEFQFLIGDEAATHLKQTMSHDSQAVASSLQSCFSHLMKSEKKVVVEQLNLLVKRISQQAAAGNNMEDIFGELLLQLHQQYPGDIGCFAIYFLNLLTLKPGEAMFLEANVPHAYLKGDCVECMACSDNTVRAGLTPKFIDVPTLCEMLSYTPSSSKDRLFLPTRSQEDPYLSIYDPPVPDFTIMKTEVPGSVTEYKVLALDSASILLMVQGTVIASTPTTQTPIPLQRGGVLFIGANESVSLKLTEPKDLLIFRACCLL

[24] = biological target: T11, Mannose-6-phosphate isomerase; experiment: PMI enzyme inhibitors, confirmation, biochemical, fluorescence intensity (AID 1535)
[25] = biological target: DNA dC->dU-editing enzyme APOBEC-3A (Homo sapiens, UniProt P31941); experiment: APOBEC3A DNA deaminase inhibitors, dose response, biochemical (AID 504722); format: functional
[26] = biological target: Glucose-6-phosphate 1-dehydrogenase (Homo sapiens, UniProt P11413); experiment: human G6PD enzyme inhibitors, dose response, selectivity assay for P. falciparum G6PD inhibitor project, biochemical, fluorescence (AID 504792); format: functional
Phosphomannomutase 2 = biological target: T12, Phosphomannomutase 2 (Homo sapiens, UniProt O15305); experiment: Counter screen SAR assay for PMM2 inhibitors via a fluorescence intensity assay. [Related pubchem assays (depositor defined):AID1545, AID1574]
T12 sequence (O15305 whole entry): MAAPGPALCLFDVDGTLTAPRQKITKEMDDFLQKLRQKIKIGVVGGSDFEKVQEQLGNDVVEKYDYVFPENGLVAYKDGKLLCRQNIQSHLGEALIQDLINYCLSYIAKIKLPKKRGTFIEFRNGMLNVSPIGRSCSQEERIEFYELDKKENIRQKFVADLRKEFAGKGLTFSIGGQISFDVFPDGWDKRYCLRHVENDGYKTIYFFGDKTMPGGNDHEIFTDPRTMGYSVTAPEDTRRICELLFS

[27] = biological target: DNA dC->dU-editing enzyme APOBEC-3G (Homo sapiens, UniProt Q9HC16); experiment: Dose Response confirmation of small molecule APOBEC3G DNA Deaminase Inhibitors via a fluorescence-based single-stranded DNA deaminase assay. [Related pubchem assays (depositor defined):AID493012, AID493028]; format: functional
[28] = A small molecule screen for inhibitors of the PhoP region in Salmonella typhi (4) using purified and synthesized compounds. [Related pubchem assays (depositor defined):AID1850, AID1864, AID1985, AID2252, AID2384, AID2612, AID2811, AID434995]; format: functional

T1 sequence (Q9Y2T6 whole entry): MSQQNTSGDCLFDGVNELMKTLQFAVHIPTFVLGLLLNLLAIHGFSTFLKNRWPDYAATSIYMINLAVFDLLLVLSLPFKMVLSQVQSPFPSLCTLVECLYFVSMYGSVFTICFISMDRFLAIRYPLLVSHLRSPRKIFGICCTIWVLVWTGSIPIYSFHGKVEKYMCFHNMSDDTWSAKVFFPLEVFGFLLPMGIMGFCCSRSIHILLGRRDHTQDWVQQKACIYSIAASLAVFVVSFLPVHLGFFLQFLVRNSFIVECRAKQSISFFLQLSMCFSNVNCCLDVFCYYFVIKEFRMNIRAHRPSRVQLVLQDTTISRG

CCCCC1(Cc2cccc([N+](=O)[O-])c2)C(=O)N(c2ccccc2)N(c2ccccc2)C1=O
IC50 [1]: 0.552 µM (active)
IC50 (Cannabinoid receptor 1 [2]): 11 µM (inactive)
EC50 [3]: > 32 µM (inactive)
IC50 (Cannabinoid receptor 2 [4]): > 32 µM (inactive)
EC50 (Cannabinoid receptor 1 [5]): > 32 µM (inactive)
IC50 [6]: > 32 µM (inactive)
IC50 [7]: 0.577 µM (active)
EC50 (Cannabinoid receptor 2 [8]): > 32 µM (inactive)

Cc1cccc(-n2cc(CN3CCN(C(=O)c4nc[nH]n4)CC3)c(-c3cccc(F)c3)n2)c1
IC50 [9]: > 79.4 µM (inactive)
IC50 [10]: > 79.4 µM (inactive)
IC50 [11]: > 79.4 µM (inactive)

Cc1ccc(C(=O)Nc2nnc(CC(=O)N/N=C/c3ccc(O)c(O)c3)s2)cc1
IC50 [12]: 4.81 µM (active)
IC50 (SUMO-activating enzyme [13]): 1.71 µM (active)
IC50 (SUMO-activating enzyme [14]): 37.1 µM (active)
IC50 [15]: 46 µM (active)
EC50 [16]: 66 µM (active)
EC50 [17]: 37.2 µM (active)
EC50 [18]: 47.8 µM (active)

CCOC(=O)Cc1csc(-n2sc3ccccc3c2=O)n1
IC50 [19]: 5.4 µM (active)
IC50 [20]: 1.15 µM (active)
IC50 [21]: 8.58 µM (active)
IC50 [22]: > 50 µM (inactive)
IC50 [23]: 23.5 µM (active)
IC50 [24]: > 50 µM (inactive)
IC50 [25]: > 100 µM (inactive)
IC50 [26]: 21.6 µM (inactive)
IC50 (Phosphomannomutase 2): > 100 µM (inactive)
IC50 [27]: 12.6 µM (active)

COc1cccc(CNC(=S)Nc2ccncc2)c1
IC50 [28]: 164 µM (active)
